Results on 1 compound are retold here after US20100119595A1, “Monounsaturated fatty acids and perhydrocyclopentanophenanthrene nucleus combination molecules, and their precursors, and the use of all of these as weight-loss agents” (priority 2001, published 2010).

A short description of experiment [1]: Dog weight-loss study, 2 hydroxyestrone oleate vs oleoyl-estrone (Example 10). The class given is in vivo. The settings on record: oral 21 days, 5, 3.33 or 2.5 micromoles/kg vs OE 10 micromoles/kg. The text has this:
Dogs are selected and initial measurements taken. The initial measurements include weight and electrical impedance for each dog as measured by a standard impedance measuring device with electrodes placed between the front and rear paws. The dogs are placed individually in appropriate cages and allowed an ad libitum diet of standard dog chow and water for a 10-day period. Daily measurements include the following: • 1. Weight • 2. Weight of food consumed • 3. Water consumed, both volume and weight
Every other day, the dogs' electrical impedance is measured as an indicator of fat tissue content and loss. The dogs remain confined with out of cage activity or exercise for the duration of the experiment. This initial 10-day period establishes a pattern and average of weight gain, impedance change, and food and water consumption for each dog. […] This assures the dogs will readily accept the bread ball as a drug delivery device. […]
An appropriate volume of either OE or 2HOE is placed into the center of a thick piece of dense sweet bread (non-porous), carefully rolled into a small ball so none of the compound leaks out, and sprinkled on the outer surface with sugar or syrup as determined above. […] Electrical impedance of each dog is measured every other day.

Experiment [2] in a line: Rat study of 2 hydroxyestrone oleate (Example 12). The class given is in vivo, Osborne Mendle rats. The settings on record: rats, oral gavage 21 days, 10, 5, 3.33 or 2.5 micromoles/kg. How it is done:
Osborne Mendle rats are selected as the study subjects due to their propensity to gain fat when fed a high fat diet. An initial measurement of body weight is performed on each rat. The rats are placed individually in appropriate cages and allowed an ad libitum diet of standard rat chow and water for a 10-day period. During this 10-day period the rats are gavaged daily with 0.1 cc volume of sunflower oil to allow them to become comfortable with being handled and receiving the gavage tube (it takes about 10 days for this acclimation to occur, and is important so that the animals are not stressed by the gavage). Daily measurements include the following: • 1. Weight • 2. Weight of food consumed • 3. Spillage • 4. Water consumed, both volume and weight The rats remain confined and are denied out-of-cage activity or exercise for the duration of the experiment other than normal daily activity confined to the cage. This initial 10 day period establishes a pattern and average of weight gain, to acclimate the animals to the gavage procedure, and determine the average food and water consumption for each rat. […]
At the end of the study, rats are anesthetized then sacrificed via guillotine. […] Weight of the uterus is determined. […]

Take `CCCCCCCC/C=C\CCCCCCCC(=O)Oc1cc2c(cc1O)[C@H]1CC[C@]3(C)C(=O)CC[C@H]3[C@@H]1CC2` [2HOE, 2 hydroxyestrone oleate]: the “weight loss compared with dogs receiving oleoyl-estrone” value in experiment [1] is on record as “greater weight loss”. Further, in experiment [2], the “body weight &/or body fat” value is recorded as “reduction of body weight &/or body fat” and the food consumption entry was “reduction in food consumption”.
